Measurements as given in article PMC5082805 (PLoS ONE, 2016).
Like-named read-outs stand apart in the source and are kept apart here. Where a SMILES comes first, the peptide text is derived from it. Bridges are numbered along the chain shown (N, C = ends). [ ]: non-standard residue; d: D form. Orn(iPr) = CC(C)NCCC[C@H](N)C(=O)O; Aad = N[C@@H](CCCC(=O)O)C(=O)O

What was measured:
[1] = system: non-atherosclerotic (NA) and atherosclerotic (A) rabbits; assay: Electrocardiogram monitoring during incremental infusion rates; type: in vivo, New Zealand White rabbits; settings: A and NA animals, NE finding at the highest rate tested (1 μg.kg^−1.min^−1)
Experimental: (§1) Following overnight fasting, the rabbits were pre-anesthetized intramuscularly using a mixture of 15 mg/kg ketamine hydrochloride (Imalgène 500®, Rhône Mérieux, Lyon, France) and 0.7 mg/kg xylazine hydrochloride (Rompun® 2%, KVP, Kiel, Germany). The animals were tracheotomized and maintained under isoflurane anesthesia (2% v/v isoflurane in oxygen [isoflurane: AErrane®, Baxter, Maurepas, France]). The electrocardiogram was monitored continuously (Lead II derivation) during surgery. A femoral vein was cannulated using a polyvinyl chloride catheter to administer selepressin, AVP, NE, or vehicle while a carotid artery was cannulated for blood sampling. A Millar catheter-tip transducer was introduced into the femoral artery to determine arterial pressure. The animals were infused intravenously using Ringer lactate (Lavoisier, Paris, France) at 2 mL/h.
AP and electrocardiogram signals were amplified (Hugo Sachs Elektronik, March-Hugstetten, Germany) and recorded continuously using a computerized data acquisition system (Notocord, Croissy-sur-Seine, France) with acquisition rates of 500 and 1000 Hz for arterial pressure and electrocardiogram, respectively.

[2] = system: non-atherosclerotic (NA) and atherosclerotic (A) rabbits; assay: Serum biomarkers of cardiac injury (ASAT, CK, cardiac troponin I); type: in vivo, New Zealand White rabbits; settings: at the end of administration of the highest infusion rate, n = 5
[3] = system: non-atherosclerotic (NA) and atherosclerotic (A) rabbits; assay: Hemodynamic dose-response to cumulative intravenous infusion rates in anesthetized rabbits; type: in vivo, New Zealand White rabbits; settings: incremental i.v. infusion rates, nonlinear regression, mean ± standard error of the mean
Experimental: Thirty male New Zealand White rabbits (2.6–3.6 kg, Centre d’élevage G. Achard de la Vente, St Mars d'Egrenne, France), aged 3–4 months were individually housed in stainless steel mesh cages (500 × 600 × 400 mm) at 19–25°C and ≥35% humidity with a 12-h light/dark cycle. Each animal received Bolapin (Huttepain Bouix, Le Mans, France) at approximately 60 g/day as standard diet (non-atherosclerotic animals) or supplemented with1% cholesterol for 6 weeks to induce atherosclerosis (both n = 15). The animals were fasted for at least 12 h before clinical laboratory blood sampling, on the day of the experiment, and before scheduled necropsy. Water was supplied ad libitum. On completion of cholesterol feeding, the animals were prepared surgically to determine cardiovascular variables and infused intravenously with selepressin, arginine vasopressin (AVP), or norepinephrine (NE) at incremental rates.
as §1
A left parasternal image window was used to obtain a long-axis view, visualizing the entire ascending aorta, the innominate artery branch, and the left common carotid arteries in the same plane. Prior to dosing, all of the animals (atherosclerotic [A] and non-atherosclerotic [NA]) were examined by 2-dimensional ultrasonography using a 15-MHz linear probe. The thoracic aorta was visualized at up to 30 frames/s using a 120-μm axial resolution. An adequate penetration depth was set to several centimeters beyond the far wall of the ascending aorta. Intima-media thickness (IMT) immediately proximal to the innominate artery branch site was determined in a consistent manner in each animal using the arterial branching points as anatomic landmarks.
Doppler ultrasonographic measurements were performed using Acuson Séquoia 526 color Doppler equipment (Siemens, Saint-Denis, France). Aortic flow measurements were performed from a trans-hepatic view for perfect alignment (cos(theta) of the Doppler equation ≈1). Time velocity integrals and aortic diameter were determined for each time point by aortic echography.
Aortic blood flow (ABF, mL/min) was calculated according to the following formula: ABF (mL/min) = SV (mL/beat)×HR (beats/min) where:
• HR: heart rate • SV (stroke volume, mL) = ITVAo (cm) × SAo (cm^2) • ITVAo: Integral time velocity of the aorta evaluated from the mean of three to five consecutive velocity waveforms (i.e., three to five heartbeats) • SAo (Section of the aorta) = (π × DAo^2)/4 • DAo: Aortic diameter (cm) determined by aortic echography close to the maximal velocity measurement site.
Before treatment, the animals (n = 5 for each drug and for A vs. NA) were infused with the corresponding vehicle (10 mM acetate buffer at 9% v/v in 0.9% NaCl for selepressin, 10 mM acetate buffer at 0.3% v/v in 0.9% NaCl for AVP, and in 0.9% NaCl for NE) at 1 mL.kg^−1.h^−1 for 15 min. Selepressin acetate, AVP, and NE were administered via the femoral vein. […]

[4] = Plasma bioanalysis at the time of maximum hemodynamic effect; settings: New Zealand White, rabbit, in vivo, iv; atherosclerotic (A) rabbits; incremental i.v. infusion; LC-MS/MS for selepressin and AVP, LC with colorimetric detection for NE; mean ± standard deviation, n = 5; SD; read-out: maximum plasma concentration
Experimental: Blood for bioanalysis was sampled from all of the animals both before the first infusion (vehicle control) and for each infusion rate at the time of maximum hemodynamic effect. Quantification of selepressin, AVP, or NE in plasma samples was performed using validated liquid chromatography with tandem mass spectrometric detection for selepressin and AVP and validated liquid chromatography with colorimetric detection for NE. All of the animals treated with selepressin, AVP, or NE were exposed in a dose-dependent manner, with no difference between A and NA animals. The maximum selepressin plasma concentrations (mean ± standard deviation) were 329±52 and 367±48 ng/mL for A and NA animals, respectively, for AVP they were 122±27 and 100±46.2 ng/mL for A and NA, respectively, and for NE they were 301±126 and 345±164 ng/mL for A and NA, respectively.

[5] = healthy rats; ref unpublished results; cited from earlier work
healthy dogs = settings: cited from earlier work
[6] = healthy dogs; ref unpublished results; cited from earlier work
[7] = non-atherosclerotic (NA) rabbits
[8] = atherosclerotic (A) rabbits, SEM
[9] = non-atherosclerotic (NA) rabbits, SEM

SMILES | electrocardiogram abnormalities (including ST segment elevation) [1] | serum aspartate aminotransferase activity vs baseline ([2]; atherosclerotic (A) rabbits) | serum aspartate aminotransferase activity vs baseline [2, 7] | Log ED50, aortic blood flow (ABF) [3, 8] | Log ED50, diastolic arterial pressure (DAP) [3, 8] | Log ED50, heart rate (HR) [3, 8] | Log ED50, mean arterial pressure (MAP) [3, 8] | Log ED50, stroke volume (SV) [3, 8] | Log ED50, systolic arterial pressure (SAP) [3, 8] | Log ED50, mean arterial pressure (MAP) [3, 7] | Log ED50, aortic blood flow (ABF) [3, 9] | Log ED50, diastolic arterial pressure (DAP) [3, 9] | Log ED50, heart rate (HR) [3, 9] | Log ED50, stroke volume (SV) [3, 9] | Log ED50, systolic arterial pressure (SAP) [3, 9] | Cmax [4] | Log ED50, mean arterial pressure (MAP) [3, 9] | half-life [5] | coronary ischemic liability (healthy dogs) | half-life [6]
NC(=O)CC[C@@H]1NC(=O)[C@H](Cc2ccccc2)NC(=O)[C@H](Cc2ccc(O)cc2)NC(=O)[C@@H](N)CSSC[C@@H](C(=O)N2CCC[C@H]2C(=O)N[C@@H](CCCN=C(N)N)C(=O)NCC(N)=O)NC(=O)[C@H](CC(N)=O)NC1=O [AVP, arginine vasopressin] | No electrocardiogram abnormalities | not significantly different from baseline | not significantly different from baseline | −8.4±0.2 log(ng.kg^-1.min^-1) | −8.7±1.1 log(ng.kg^-1.min^-1) | −8.5±0.5 log(ng.kg^-1.min^-1) | −8.6±1.4 log(ng.kg^-1.min^-1) | −7.9±5.1 log(ng.kg^-1.min^-1) | −8.6±3.2 log(ng.kg^-1.min^-1) | No fit | −8.1±0.5 log(ng.kg^-1.min^-1) | −10.0±7.5 log(ng.kg^-1.min^-1) | −8.6±0.2 log(ng.kg^-1.min^-1) | −7.5±5.9 log(ng.kg^-1.min^-1) | −6.6±1.9 log(ng.kg^-1.min^-1) | 0.122 ± 0.027 µg/mL | – | – | – | –
NC[C@H](O)c1ccc(O)c(O)c1 [NE, norepinephrine] | Some premature ventricular beats | – | – | −6.2±0.7 log(ng.kg^-1.min^-1) | −5.8±0.4 log(ng.kg^-1.min^-1) | −7.0 ±1.2 log(ng.kg^-1.min^-1) | −5.7±0.3 log(ng.kg^-1.min^-1) | −5.4±0.4 log(ng.kg^-1.min^-1) | – | – | −6.5±0.4 log(ng.kg^-1.min^-1) | −6.0±0.3 log(ng.kg^-1.min^-1) | −6.9±0.9 log(ng.kg^-1.min^-1) | −6.5±0.4 log(ng.kg^-1.min^-1) | −6.1±0.2 log(ng.kg^-1.min^-1) | – | −6.1±0.3 log(ng.kg^-1.min^-1) | – | – | –
CC[C@H](C)[C@@H]1NC(=O)[C@H](Cc2ccccc2)NC(=O)[C@@H](N)CSSC[C@@H](C(=O)N2CCC[C@H]2C(=O)N[C@@H](CCCNC(C)C)C(=O)NCC(N)=O)NC(=O)[C@H](CC(N)=O)NC(=O)[C@H](CCCC(N)=O)NC1=O [Selepressin, selepressin] (H-CFI[Aad](NH2)NCP[Orn(iPr)]G-NH2; disulfide 1-6) | No electrocardiogram abnormalities | not significantly different from baseline | not significantly different from baseline | – | – | – | – | – | – | – | – | – | – | – | – | 0.329 ± 0.052 µg/mL | – | approximately 20 min | no relevant coronary ischemic liability | ~30 min
